Test results: PMC8459327, “Identification of molecular glues of the SLP76/14-3-3 protein–protein interaction” (RSC Medicinal Chemistry, 2021)
Entries after “also recorded” stand apart in the source; their conditions may differ. Where two headings read alike, the source gives them in different places.

Assays:
Format in all cases: binding
14-3-3γ/SLP76 [1] = biological target: T1, 14-3-3γ/SLP76 (Homo sapiens, UniProt P61981+Q13094); assay: HTRF dose-response assay on 14-3-3γ/SLP76; details: 14-3-3γ-Tb 1 nM, SLP76-AF647 600 nM, 5% DMSO, EC50 estimated from fit
T1 sequence (Q13094 356-533): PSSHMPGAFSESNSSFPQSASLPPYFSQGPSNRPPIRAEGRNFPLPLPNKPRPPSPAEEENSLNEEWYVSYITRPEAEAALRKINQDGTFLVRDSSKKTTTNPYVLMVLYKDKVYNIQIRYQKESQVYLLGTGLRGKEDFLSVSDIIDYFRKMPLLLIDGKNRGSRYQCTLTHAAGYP
T1 sequence (P61981 whole entry): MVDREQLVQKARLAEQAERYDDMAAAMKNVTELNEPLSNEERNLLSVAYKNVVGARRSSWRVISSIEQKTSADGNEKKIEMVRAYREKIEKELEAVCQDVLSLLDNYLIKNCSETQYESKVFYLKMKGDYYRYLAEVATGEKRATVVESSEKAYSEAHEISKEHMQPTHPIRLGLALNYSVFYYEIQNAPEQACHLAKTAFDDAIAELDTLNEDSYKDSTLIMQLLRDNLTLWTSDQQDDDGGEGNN
Experimental: 384-Well logistic plates were prefilled with 2 μL of compounds at 2 mM, 100% DMSO, except for columns 1, 2, 23 and 24. Columns 1, 2 were filled with 2 μL of DMSO while columns 23, 24 were filled with 2 μL of the 14-3-3 inhibitor R18 at 20 μM using a Multidrop Dispenser (ThermoScientific). Next, 40 μL of protein mixture containing Tb-labelled 14-3-3γ at 1 nM and AF647 labelled SLP76 at 600 nM in assay buffer (50 mM Tris pH 7.5, 150 mM NaCl, 5 mM MgCl2, 0.05% v/v Tween-20) were added using a Multidrop Dispenser (ThermoScientific). […] To perform the assay, 30 μL volumes were then transferred using a Biomek FX^P Automated Workstation (Beckman Coulter) into Corning 384-well 3574 assay plates. The plates were incubated at room temperature with gentle shaking for 4 h. Finally, the data were collected on a PHERAstar FSX plate reader (BMG Labtech) with an λex 337 nm, λem 665 nm and 620 nm HTRF filter setting. The data were exported in IDBS ActivityBase (IDBS) where they were normalised setting the R18 negative control as 100% inhibition and the DMSO control as 0%. Negative percentage values were therefore associated with a stabilisation of the 14-3-3γ/SLP76 interaction. The threshold of −20% inhibition (or 20% stabilisation) was chosen to select the hits to follow up. The selected hits were retested on 14-3-3γ/SLP76 and were also tested against an unrelated protein pair (IL-17/receptor) in a similar assay setup. […] All the assays were performed as described above.
(§1) 384 logistic plates were prefilled with 40 μL of compounds at 10 mM, 100% DMSO in column 3. Columns 1, 2 and 4 to 22 were filled with 20 μL of 100% DMSO with a Multidrop Dispenser (ThermoScientific). 2-Fold dilutions of the compounds were carried over from column 3 to 22, with a CyBio FeliX liquid handler (analytikjena). 2 μL of R18 peptide at 20 μM was added to columns 23 and 24 of the Corning 384-well 3574 final assay plates with a Multidrop Dispenser (ThermoScientific). 40 μL of protein mixture, containing Tb labelled 14-3-3γ at 1 nM and AF647 labelled SLP76 at 600 nM in assay buffer (50 mM Tris pH 7.5, 150 mM NaCl, 5 mM MgCl2, 0.05% v/v Tween-20) were added with a Multidrop Dispenser (ThermoScientific) into the Corning 384-well 3574 final assay plates. 2 μL of compounds along with the DMSO control were then transferred with a CyBio FeliX liquid handler (analytikjena) from the 384 logistic plates to the final Corning 384-well 3574 assay plates. […] The dose–response on the first 64 compounds was performed in singlet from a 500 μM top concentration. The repetition on the best 16 compounds was performed in duplicates from a 250 μM top concentration. A dose–response assay on an unrelated 14-3-3ζ/p27 HTRF protein pair was performed as described above. Incubation, data acquisition and normalisation were performed as described above. For EC50 estimation, the data were fitted with a “log(agonist) vs. response (three parameters)” model on GraphPad Prism version 8.1.1 for Windows, GraphPad Software, La Jolla California USA, www.graphpad.com. In the case of duplicates, each data point is the average of a duplicate measurement, standard deviation is reported as error bars.

14-3-3ζ/p27 = 14-3-3ζ/p27 (Homo sapiens, UniProt P46527+P63104); assay: HTRF dose-response assay on 14-3-3ζ/p27; details: for Selectivity between 14-3-3γ/SLP76 and 14-3-3ζ/p27 (in words): comparison of HTRF dose-responses
Sequence of 14-3-3ζ/p27 (P63104 whole entry): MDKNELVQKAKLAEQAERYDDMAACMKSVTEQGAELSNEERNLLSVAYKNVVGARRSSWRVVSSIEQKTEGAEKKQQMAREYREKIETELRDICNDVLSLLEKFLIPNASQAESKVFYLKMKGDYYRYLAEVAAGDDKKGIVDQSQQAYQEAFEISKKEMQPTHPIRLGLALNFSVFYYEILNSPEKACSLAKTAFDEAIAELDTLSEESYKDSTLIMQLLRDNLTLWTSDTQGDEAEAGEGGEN
Sequence of 14-3-3ζ/p27 (P46527 whole entry): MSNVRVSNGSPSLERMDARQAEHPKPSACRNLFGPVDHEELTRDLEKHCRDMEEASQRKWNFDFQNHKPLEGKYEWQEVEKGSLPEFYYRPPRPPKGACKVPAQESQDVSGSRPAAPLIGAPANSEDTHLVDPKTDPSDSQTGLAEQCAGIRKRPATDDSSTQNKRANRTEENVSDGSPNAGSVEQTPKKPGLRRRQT
Experimental: as §1

14-3-3γ/SLP76 [2] = biological target: T1, 14-3-3γ/SLP76; assay: Orthogonal SPR assay, compound flowed with SLP76 over immobilised 14-3-3γ; parameters: key to SPR RU (%) mass increase 14-3-3γ/SLP76: Ns: no stabilisation observed in SPR; details: for Stabilisation in SPR (in words): off-rate / mass on chip versus runs without compound; for SPR RU (%) mass increase 14-3-3γ/SLP76: percentage of SLP76 remained on the chip after the dissociation phase (+240 s)
Experimental: Of the 16 hit compounds 13 were tested in an orthogonal SPR assay in which each compound was flowed with SLP76 over 14-3-3γ immobilised on the chip. Runs at different concentrations of compound were compared to the runs in absence of compound. […] The effect of the compounds on 14-3-3γ/SLP76 was measured by calculating the percentage of SLP76 remained on the chip after the dissociation phase and immediately before: RU (%) = RU 5 s before dissociation/RU +240 s after dissociation. Dose–response curves were extrapolated from those sensorgrams plotting the RU (%) mass increase over the increase in compound concentrations.
SPR experiments were performed on a Biacore T200 (Cytiva). The Sensor Chip NTA was validated as previously reported by Soini et al.[63] A DMSO tolerance at 2% and 5% was performed in the same way (Fig. S1 ^†).
For compounds testing, the compounds were preincubated with SLP76, in final DMSO concentration of 5%. The compounds were tested at a single concentration of 100 μM and at multiple concentrations following a 3-fold dilution from a top concentration of 100 μM with SLP76 at the saturation concentration of 250 nM. A second set of experiments were performed at multiple concentrations of compound following a 3-fold dilution from a top concentration of 200 μM with SLP76 around the KD concentration of 40 nM. The SLP76/compound mixtures were flowed over the immobilised 14-3-3γ at 30 μL min^−1 for 180 s before allowing dissociation for 5 minutes. After every cycle, the chip was washed with EDTA and Ni^2+ and 14-3-3γ reinjected for the next cycle. The compound effects were measured by calculating the percentage of SLP76 remained on the chip after the dissociation phase and right before: RU (%) = RU 5 s before dissociation/RU +240 s after dissociation. RU response points relative to +240 s after dissociation were also plotted and an apparent EC50 was estimated. The data were fitted with a “One site – specific” model on GraphPad Prism version 8.1.1 for Windows, GraphPad Software, La Jolla California USA, www.graphpad.com.

[3] = stabilisation, read-out: HTRF EC50 14-3-3γ/SLP76
[4] = stabilisation, same FRET pair, EC50 estimated from fit, read-out: HTRF EC50 14-3-3ζ/p27

Compound	EC50 (14-3-3γ/SLP76 [1]; [3]) [µM]	Selectivity between 14-3-3γ/SLP76 and 14-3-3ζ/p27 (in words) (14-3-3ζ/p27)	EC50 (14-3-3ζ/p27; [4]) [µM]	Stabilisation in SPR (in words) (14-3-3γ/SLP76 [2])	SPR RU (%) mass increase 14-3-3γ/SLP76 (14-3-3γ/SLP76 [2])	EC50 (14-3-3γ/SLP76 [1]; HTRF EC50 14-3-3γ/SLP76, stabilisation) [µM]	EC50 (14-3-3ζ/p27) [µM]	Stabilisation of 14-3-3ζ/p27 in HTRF (in words) (14-3-3ζ/p27)
COc1ccc(C(=O)N2C[C@@H]3CN(CCO3)C(=O)[C@@H]3C[C@@H](CN3Cc3ccc4c(c3)OCO4)NC(=O)C[C@@H]3O[C@H](C2)[C@@H](O)[C@H]3O)cc1 [Compound 4, (3S,6S,10S,11R,12S,13R,17R)-4-(1,3-benzodioxol-5-ylmethyl)-11,12-dihydroxy-15-(4-methoxybenzoyl)-18,22-dioxa-1,4,7,15-tetrazatetracyclo[15.3.1.13,6.110,13]tricosane-2,8-dione]	17.4 ± 4.9	selective for the 14-3-3γ/SLP76 system	> 250	orthogonally confirmed by SPR; also recorded: orthogonally confirmed in the SPR assay	57.1%	–	–	–
S=c1[nH]nc(Cn2nnc3ccccc32)o1 [Compound 13, 5-(benzotriazol-1-ylmethyl)-1,3,4-oxadiazole-2-thiol]	4.9 ± 1.1	–	> 250	–	Ns ^d	–	–	–
Cc1ccc(-c2ccc3c(n2)C(=N)NC3CCc2ccc(O)cc2)o1 (centres unmarked) [Compound 11, 4-[2-[7-imino-2-(5-methylfuran-2-yl)-5,6-dihydropyrrolo[3,4-b]pyridin-5-yl]ethyl]phenol]	29.7 ± 21.8	–	129 ± 70.5	–	–	–	–	–
COc1ccc2c(c1)[C@]1(CC[N+](C)(C)CC(=O)OC(C)(C)C)CCCC[C@@H]1C=C2 [Compound 6, 2-[(4aS,10aR)-6-methoxy-2,3,4,10a-tetrahydro-1H-phenanthren-4a-yl]ethyl-dimethyl-[2-[(2-methylpropan-2-yl)oxy]-2-oxoethyl]azanium]	–	selective over 14-3-3ζ/p27	–	no observable stabilisation effect	Ns ^d	33.5 ± 10.7	> 250	–
Fc1ccc(OCc2nn3c(Cn4cnc5ccccc54)nnc3s2)cc1 [Compound 8, 3-(benzimidazol-1-ylmethyl)-6-[(4-fluorophenoxy)methyl]-[1,2,4]triazolo[3,4-b][1,3,4]thiadiazole]	69.1 ± 22.6	weak and equipotent stabiliser of both the 14-3-3γ/SLP76 and 14-3-3ζ/p27 systems	53.9 ± 17.1	orthogonally confirmed by SPR	61.2%	–	–	–
COc1ccccc1-c1nnc2scnn12 [Compound 9, 3-(2-methoxyphenyl)-[1,2,4]triazolo[3,4-b][1,3,4]thiadiazole]	24.5 ± 5.8	modest level of selectivity in stabilising 14-3-3ζ/p27 over 14-3-3γ/SLP76	5.8 ± 2.2	orthogonally confirmed by SPR	58.7%	–	–	–
O=C(Cn1nc(C(F)(F)F)c2c1CCCC2)Nc1ccc(Cl)c(Cl)c1 [Compound 14, N-(3,4-dichlorophenyl)-2-[3-(trifluoromethyl)-4,5,6,7-tetrahydroindazol-1-yl]acetamide]	21.2 ± 11.3	–	12.6 ± 14.4	not confirmed in the SPR assay	Ns ^d	–	–	–
CC(C)N1CC[C@H]2COC(=O)N2c2cc(F)ccc2C1 [Compound 2, (6S)-14-fluoro-9-propan-2-yl-4-oxa-2,9-diazatricyclo[9.4.0.02,6]pentadeca-1(15),11,13-trien-3-one]	18.6 ± 5.5	selective for the 14-3-3γ/SLP76 interaction	> 250	orthogonally confirmed and equipotent by SPR	67.6%	–	–	no observed stabilisation
O=C1OC[C@@H]2CCN(Cc3ccccc3)Cc3ccccc3N12 [Compound 1, (6S)-9-benzyl-4-oxa-2,9-diazatricyclo[9.4.0.02,6]pentadeca-1(11),12,14-trien-3-one]	19.1 ± 7.7	selective for the 14-3-3γ/SLP76 interaction	> 250	orthogonally confirmed and equipotent by SPR	66.4%	–	–	no observed stabilisation
CC1=Nn2c(nnc2-c2ccoc2C)SC1 [Compound 10, 6-methyl-3-(2-methylfuran-3-yl)-7H-[1,2,4]triazolo[3,4-b][1,3,4]thiadiazine]	70.1 ± 8.7	modest level of selectivity in stabilising 14-3-3ζ/p27 over 14-3-3γ/SLP76	16.5 ± 10.6	no observable stabilisation	Ns ^d	–	–	–
CC(=O)CSc1nc2c(c(=O)[nH]c(=O)n2C)n1Cc1cccc(C)c1 [Compound 15, 3-methyl-7-[(3-methylphenyl)methyl]-8-(2-oxopropylsulfanyl)purine-2,6-dione]	17.1 ± 5.2	–	11.6 ± 6.1	–	–	–	–	–
O=C(c1ccc(Cl)cc1)n1c(Cn2nnc(-c3cccc4ccccc34)n2)n[nH]c1=S [Compound 16, (4-chlorophenyl)-[3-[(5-naphthalen-1-yltetrazol-2-yl)methyl]-5-sulfanylidene-1H-1,2,4-triazol-4-yl]methanone]	1.2 ± 0.7	–	80.6 ± 53.4	–	–	–	–	–
